From US20090030086A1, “ANTIMICROBIAL AGENTS” (priority 2005, published 2009) come the findings set out here.

Experiment [1] concerns P. acnes NCTC 737. In words: Disc diffusion assay (DDA). The format is cell-based, Propionibacterium acnes. The following applies: Cutibacterium acnes. As to the method: (§1) The Propionibacterium spp organisms were cultured and maintained on Wilkins-Chalgren Anaerobe Medium (agar and broth) at pH 6.0; cultures were incubated anaerobically at 37° C. for 72 hours.
(§2) A sterile paper disc was impregnated with a sample of the test compound and a minimum of 30 minutes allowed for the solvents to evaporate as far as possible. The disc was then placed on an agar plate onto which the test micro-organism had been inoculated. The plate was then incubated under the conditions described above, following which it was examined visually for signs of bacterial growth. […] The diameter of this zone of “inhibition” was measured using a ProtoCOL™ automated zone sizer (Synbiosis, Cambridge, UK).
(§3) The area of the zone of inhibition was calculated from the measured zone diameter (D) using the formula π(D/2)^2.
(§4) For most DDA assays, 200 μg of each compound was loaded onto each disc.

In experiment [2] the test system is S. aureus ATCC 29213. In words: MBC assay. The format is cell-based, Staphylococcus aureus. The note with it: for MBC: Staphylococcus aureus. As to the method: (§5) The staphylococci and enterococci were cultured and maintained on Mueller-Hinton Medium (agar and broth) at pH 7.2; they were incubated aerobically at 37° C. for 24 hours.
(§6) This assay, normally carried out after an MIC assay, determines the minimum concentration of a compound that is lethal to the micro-organism being tested.
(§7) These samples were then individually sub-cultured on non-selective agar medium, under the incubation conditions described above. Following incubation they were examined visually for bacterial growth.
(§8) The following experiments all used S. aureus ATCC 29213 as the test organism. MIC, MBC and DDA assays, as described above, were carried out using a range of different benzoquinones and hydroquinones. Supplemented DDA assays, in the presence of salt, lipid and blood, were also conducted.

For experiment [3], the system named is P. acnes NCTC 737. In words: Supplemented disc diffusion assay. The note with it: for zone of inhibition at 200 µg/disc: Cutibacterium acnes, NCTC737, 72 h; for effect of lipid on antimicrobial activity: activity increases in the presence of lipid. The format is cell-based, Propionibacterium acnes. Here is the method: as §1, §2
(§9) Performance under these conditions can provide a more reliable indication of activity on topical application. For assays conducted using S. aureus strains, the supplements were defibrinated horse blood (5% v/v), lipid (Tween™ 80 at 1% v/v) and sodium chloride (100 mM). For those using Propionibacterium spp. strains, the supplements were lipid (Tween™ 80 at 1% v/v) and sodium chloride (100 mM).
(§10) MIC, MBC and DDA assays, as described above, were carried out using a range of different benzoquinones and hydroquinones. Supplemented DDA assays, in the presence of salt and lipid, were also conducted.
as §4

Experiment [4] deals with P. acnes NCTC 737. In words: MBC assay. The format is cell-based, Propionibacterium acnes. The following applies: for MBC: Cutibacterium acnes, NCTC737. As to the method: as §1, §6, §7, §10
Experiment [5] has as its system S. aureus ATCC 29213. In words: Supplemented disc diffusion assay. The following applies: Staphylococcus aureus, ATCC29213, 24 h. The format is cell-based, Staphylococcus aureus. As to the method: as §5, §2, §9, §8, §4
Experiment [6] deals with S. aureus ATCC 29213. In words: Disc diffusion assay (DDA). The format is cell-based, Staphylococcus aureus. The note with it: Staphylococcus aureus. As to the method:
as §5, §2, §3, §4

For experiment [7], the system named is S. aureus ATCC 29213. In words: MIC assay. The format is cell-based, Staphylococcus aureus. The following applies: for MIC: Staphylococcus aureus. As to the method: 1. Staphylococcus aureus—the principal staphylococcal test micro-organism used in these studies was Staphylococcus aureus ATCC 29213. This strain is the one recommended for QC/QA purposes in Minimum Inhibitory Concentration (MIC) assays by the US Clinical and Laboratory Standards Institute (formerly the NCCLS), an FDA-recognised body.
as §5
(§11) This is a standard international method for quantitatively assessing the antimicrobial activity of a compound in a liquid medium. The method used a 96-well microtitre plate, capable of holding about 200 μl of liquid per well. […] The culture media were as described above for the relevant test organisms.
(§12) The wells were inoculated with a liquid suspension of freshly grown micro-organism and incubated under the conditions described above. After incubation, the microtitre plate was examined visually (with the aid of a light box) for cloudiness in each well, which would indicate microbial growth. The MIC value was recorded as the lowest concentration of test compound required to inhibit microbial growth, i.e., the lowest concentration for which the liquid in the well remained clear.
(§13) The assays were conducted in duplicate and included both negative (culture medium only) and positive (culture medium, diluting solvent and inoculum) controls.
as §8

Experiment [8] relates to P. acnes NCTC 737. In words: MIC assay. The format is cell-based, Propionibacterium acnes. The note with it: for MIC: Cutibacterium acnes. As to the method:
2. Propionibacterium spp.—the principal propionibacterial strain used in these studies was Propionibacterium acnes NCTC 737.
as §1, §11, §12, §13, §10

Setting [9] is: NCTC737, P. acnes NCTC 737, unsupplemented agar, 200 μg per disc (2,6-dimethoxy-p-benzoquinone 100 μg), read-out: DDA (diameter of zone of inhibition).
Where [10] appears, read: P. acnes NCTC 737, Tween 80 at 1% v/v, 200 μg per disc (2,6-dimethoxy-p-benzoquinone 100 μg), read-out: DDA + lipid.
The mark [11] stands for this setting: P. acnes NCTC 737, sodium chloride 100 mM, 200 μg per disc (2,6-dimethoxy-p-benzoquinone 100 μg), read-out: DDA + salt.
Setting [12] is: P. acnes NCTC 737, read-out: MBC.
Setting [13] is: S. aureus ATCC 29213, Tween 80 at 1% v/v, 200 μg per disc (thymoquinone 50 μg, 2,6-dimethoxy-p-benzoquinone 100 μg), read-out: DDA + lipid.
Where [14] appears, read: S. aureus ATCC 29213, defibrinated horse blood 5% v/v, 200 μg per disc (thymoquinone 50 μg, 2,6-dimethoxy-p-benzoquinone 100 μg), read-out: DDA + blood.
[15] abbreviates: S. aureus ATCC 29213, sodium chloride 100 mM, 200 μg per disc (thymoquinone 50 μg, 2,6-dimethoxy-p-benzoquinone 100 μg), read-out: DDA + salt.
Setting [16] is: ATCC29213, S. aureus ATCC 29213, unsupplemented agar, 200 μg per disc (thymoquinone 50 μg, 2,6-dimethoxy-p-benzoquinone 100 μg), read-out: DDA (diameter of zone of inhibition).
The mark [17] stands for this setting: ATCC29213, S. aureus ATCC 29213, Mueller-Hinton broth pH 7.2, aerobic, 37° C., 24 hours, read-out: MIC.
Setting [18] is: NCTC737, P. acnes NCTC 737, Wilkins-Chalgren broth pH 6.0, anaerobic, 37° C., 72 hours, read-out: MIC.
Where [19] appears, read: NCTC737, read-out: DDA (diameter of zone of inhibition).
Where [20] appears, read: ATCC29213, read-out: DDA (diameter of zone of inhibition).

≈ marks a conversion by molar mass, not a printed value. Read-outs that look alike come from different tables or passages of the source.

On to `CC(C)(C)c1cc(O)c(O)c(C(C)(C)C)c1` [3,5-di-t-butylcatechol], for which the zone of inhibition at 200 µg/disc is 35.9 mm in experiment [1] (setting [9]); 0 mm in experiment [3] (setting [10]); 37.3 mm in experiment [3] (setting [11]); 10.9 mm in experiment [5] (setting [13]); 11.9 mm in experiment [5] (setting [14]); 19.7 mm in experiment [5] (setting [15]). The zone of inhibition at 200 µg/disc in experiment [6] (setting [16]) came out at 18.8 mm. Further, the MIC/MBC ratio in experiment [2] is listed as 1; in experiment [4] (P. acnes NCTC 737), 0.5. Besides, the MBC in experiment [2] (ATCC29213, read-out: MBC) is 7.8 µg/mL (≈ 35.1 µM); in experiment [4] (setting [12]), 15.6 µg/mL (≈ 70.2 µM). Moreover, the MIC in experiment [7] (setting [17]) and in experiment [8] (setting [18]) was 7.8 µg/mL (≈ 35.1 µM) each time.
As for `CC(C)(C)C1=CC(=O)C=CC1=O` [2-t-butyl-p-benzoquinone], the zone of inhibition at 200 µg/disc in experiment [1] (setting [9]) is 60.8 mm; in experiment [3] (setting [10]) it was more than 90 mm; in experiment [3] (setting [11]), more than 90 mm; in experiment [5] (setting [13]), more than 90 mm; in experiment [5] (setting [14]), 10.9 mm; in experiment [5] (setting [15]), 54.7 mm. Also, in experiment [6] (setting [16]), the zone of inhibition at 200 µg/disc was 58.5 mm. The MIC/MBC ratio in experiment [2] turned out to be 1; in experiment [4] (P. acnes NCTC 737), 0.5. In addition, the MBC in experiment [2] (ATCC29213, read-out: MBC) worked out at 15.6 µg/mL (≈ 95 µM); in experiment [4] (setting [12]), 15.6 µg/mL (≈ 95 µM). For the same compound, in experiment [3] (P. acnes NCTC 737), the “effect of lipid on antimicrobial activity” value is on record as “potentiated”. Moreover, the minimal inhibitory concentration (MIC) in experiment [7] (setting [17]) is 15.6 µg/mL (≈ 95 µM); in experiment [8] (setting [18]), 7.8 µg/mL (≈ 47.5 µM).
Take `COC1=CC(=O)C=C(OC)C1=O` [2,6-dimethoxy-p-benzoquinone]: the zone of inhibition at 200 µg/disc in experiment [1] (setting [19]) came to 0 mm; in experiment [3] (read-out: DDA + lipid), 15.6 mm; in experiment [3] (read-out: DDA + salt), 16.5 mm; in experiment [5] (read-out: DDA + blood) it was 17.2 mm; in experiment [5] (read-out: DDA + lipid) it was 23.7 mm; in experiment [5] (read-out: DDA + salt) it was 22.2 mm. Also, the zone of inhibition at 200 µg/disc in experiment [6] (setting [20]) was determined as 22.2 mm. In addition, the MIC/MBC ratio in experiment [2] and in experiment [4] (P. acnes NCTC 737) was 0.5 throughout. In addition, the MBC in experiment [2] (ATCC29213) amounted to 15.6 µg/mL (≈ 92.8 µM); in experiment [4] it was 31.2 µg/mL (≈ 186 µM). In addition, in experiment [7], the “activity against S. aureus ATCC 29213 (in words)” value is recorded as “strongly so”. In addition, the MIC turned out to be 7.8 µg/mL (≈ 46.4 µM) in experiment [7] (ATCC29213, 24 h, pH 7.2) and 15.6 µg/mL (≈ 92.8 µM) in experiment [8] (NCTC737, 72 h, pH 6).
In the case of `CC1=CC(=O)C=CC1=O` [2-methyl-p-benzoquinone], the zone of inhibition at 200 µg/disc in experiment [1] (setting [19]) came to 35.9 mm; in experiment [3] (read-out: DDA + lipid), 48.9 mm; in experiment [3] (read-out: DDA + salt), 42.6 mm; in experiment [5] (read-out: DDA + blood), 15.9 mm; in experiment [5] (read-out: DDA + lipid), 35.6 mm; in experiment [5] (read-out: DDA + salt) it was 35 mm. Also, in experiment [6] (setting [20]), the zone of inhibition at 200 µg/disc worked out at 35.1 mm. Further, the MIC/MBC ratio is 1 in experiment [2] and 0.5 in experiment [4] (P. acnes NCTC 737). Moreover, the MBC in experiment [2] (ATCC29213) is 15.6 µg/mL (≈ 128 µM); in experiment [4], 31.2 µg/mL (≈ 256 µM). For the same compound, in experiment [3] (P. acnes NCTC 737), the “effect of lipid on antimicrobial activity” value was “potentiated”. Moreover, the MIC was 15.6 µg/mL (≈ 128 µM) in experiment [7] (ATCC29213, 24 h, pH 7.2) and 15.6 µg/mL (≈ 128 µM) in experiment [8] (NCTC737, 72 h, pH 6). In addition, in experiment [8], the “activity against P. acnes NCTC 737 (in words)” value was “strongly so”.
